Measured values: publication PMC11938273 (Journal of Chemical Information and Modeling, 2025)
Where two headings read alike, the source gives them in different places.

Legend:
[1] = mouse, in vivo
[2] = in vivo; cited from earlier work

Molecule | CNS status [1] | CNS status [2]
COC(=O)[C@H]1[C@@H](c2ccc(I)cc2)C[C@@H]2CC[C@H]1N2C/C=C/I [Me@IPICIT, Methyl (1R,2S,3S,5S)-3-(4-iodophenyl)-8-[(2E)-3-iodo-2-propen-1-yl]-8-azabicyclo [3.2.1]octane-2-carboxylate] | Positive | –
COCC1=C(C(=O)OC)[C@H](c2ccc(F)c(F)c2)N(C(=O)NCCCN2CCC(c3cccc(NC(C)=O)c3)CC2)C(=O)N1 [SNAP7941, methyl 3-((3-(4-(3-acetamidophenyl)piperidin-1-yl)propyl)carbamoyl)-4-(3,4-difluorophenyl)-6-(methoxymethyl)-2-oxo-1,2,3,4-tetrahydropyrimidine-5-carboxylate] | – | Efflux transporter substrate
Cc1nc2n(c(=O)c1CCN1CCC(C(=O)c3ccc(F)cc3)CC1)CCS2 [Setoperone, 6-(2-(4-(4-Fluorobenzoyl)piperidin-1-yl)ethyl)-7-methyl-2H-thiazolo[3,2-a]pyrimidin-5(3H)-one] | – | Positive
N[C@@H](CC(=O)N1CCn2c(nnc2C(F)(F)F)C1)Cc1cc(F)c(F)cc1F [Sitagliptin, (3R)-3-Amino-1-[3-(trifluoromethyl)-5,6-dihydro[1,2,4]triazolo[4,3-a]pyrazin-7(8H)-yl]-4-(2,4,5-trifluorophenyl)-1-butanone] | – | Negative
CC(C)NCC(O)c1ccc(NS(C)(=O)=O)cc1 (stereo not shown) [Sotalol, N-{4-[1-Hydroxy-2-(isopropylamino)ethyl]phenyl}methanesulfonamide] | – | Negative
COc1cc2c(cc1OC)CN(CCc1ccc(NC(=O)c3cc(OC)c(OC)cc3NC(=O)c3cnc4ccccc4c3)cc1)CC2 [Tariquidar, N-[2-({4-[2-(6,7-Dimethoxy-3,4-dihydro-2(1H)-isoquinolinyl)ethyl]phenyl}carbamoyl)-4,5-dimethoxyphenyl]-3-quinolinecarboxamide] | – | Efflux transporter substrate
COc1cc([C@@H]2c3cc4c(cc3[C@@H](O[C@@H]3O[C@@H]5CO[C@@H](c6cccs6)O[C@H]5[C@H](O)[C@H]3O)[C@H]3COC(=O)[C@H]23)OCO4)cc(OC)c1O [Teniposide, (5S,5aR,8aR,9R)-9-(4-Hydroxy-3,5-dimethoxyphenyl)-8-oxo-5,5a,6,8,8a,9-hexahydrofuro[3′,4′:6,7]naphtho[2,3-d][1,3]dioxol-5-yl 4,6-O-(2-thienylmethylene)-β-D-glucopyranoside] | – | Efflux transporter substrate
Cc1ccc(C(=O)c2cc(O)c(O)c([N+](=O)[O-])c2)cc1 [Tolcapone, (3,4-dihydroxy-5-nitrophenyl)(p-tolyl)methanone] | – | Negative
CC[C@]1(O)C[C@@H]2CN(CCc3c([nH]c4ccccc34)[C@@](C(=O)OC)(c3cc4c(cc3OC)N(C)[C@H]3[C@@](O)(C(=O)OC)[C@H](OC(C)=O)[C@]5(CC)C=CCN6CC[C@]43[C@@H]65)C2)C1 [Vinblastine, Dimethyl (2β,3β,4β,5α,12β,19α)-15-[(5S,9S)-5-ethyl-5-hydroxy-9-(methoxycarbonyl)-1,4,5,6,7,8,9,10-octahydro-2 H-3,7-methanoazacycloundecino [5,4-b]indol-9-yl]-3-hydroxy-16-methoxy-1-methyl-6,7-didehydroaspidospermidine3,4-dicarboxylate] | – | Efflux transporter substrate
CC[C@]1(O)C[C@H]2CN(CCc3c([nH]c4ccccc34)[C@@](C(=O)OC)(c3cc4c(cc3OC)N(C=O)[C@H]3[C@@](O)(C(=O)OC)[C@H](OC(C)=O)[C@]5(CC)C=CCN6CC[C@]43[C@@H]65)C2)C1 [Vincristine, (3aR,3a1R,4R,5S,5aR,10bR)-Methyl 4-acetoxy-3a-ethyl-9-((5S,7S,9S)-5-ethyl-5-hydroxy-9-(methoxycarbonyl)-2,4,5,6,7,8,9,10-octahydro-1 H-3,7-methano[1]azacycloundecino[5,4-b]indol-9-yl)-6-formyl-5-hydroxy-8-methoxy3a,3a1,4,5,5a,6,11,12-octahydro-1 H-indolizino[8,1-cd]carbazole-5-carboxylate] | – | Efflux transporter substrate
COc1ccccc1N1CCN(CCN(C(=O)C2CCCCC2)c2ccccn2)CC1 [WAY-100635, N-(2-(4-(2-methoxyphenyl)piperazin-1-yl)ethyl)-N-(pyridin-2-yl)] | – | Positive
COC(=O)[C@H]1[C@@H](c2ccc(F)cc2)C[C@@H]2CC[C@H]1N2C/C=C/I [beta-CFT, (1R,2S,3S,5S)-methyl-3-(4-fluorophenyl)-8-((E)-3-iodoallyl)-8-azabicyclo[3.2.1]octane-2-carboxylate] | – | Positive
COC(=O)[C@H]1[C@@H](c2ccc(I)cc2)C[C@@H]2CC[C@H]1N2C [beta-CIT, (1R,2S,3S,5S)-methyl-3-(4-iodophenyl)-8-methyl-8-azabicyclo [3.2.1]octane-2-carboxylate] | – | Positive
CN1[C@H]2CC[C@@H]1[C@@H](c1cc(-c3ccccc3)no1)[C@@H](c1ccc(Cl)cc1)C2 [beta-CPPIT, 5-((1R,2S,3S,5S)-3-(4-chlorophenyl)-8-methyl-8-azabicyclo[3.2.1]octan-2-yl)-3-phenylisoxazole] | – | Positive
CNC(C)C(O)c1cccc(O)c1 (stereo not shown) [mHED, 3-[1-Hydroxy-2-(methylamino)propyl]phenol] | – | Negative
Teicoplanin | – | Negative
